Results reported in paper PMC11187126, “Structure and dynamics of the pyroglutamylated RF-amide peptide QRFP receptor GPR103” (Nature Communications, 2024).
No end group written: not given here.

Molecular target: T1, GPR103 Q184^4.64A (Homo sapiens, UniProt Q96P65, Q184A)
T1 construct: we used human full-length QRFPR-encoding plasmids; expressed in transfected cells; host or cells: HEK293 cells, pCAGGS vector
T1 sequence (Q96P65 1-431 Q184A): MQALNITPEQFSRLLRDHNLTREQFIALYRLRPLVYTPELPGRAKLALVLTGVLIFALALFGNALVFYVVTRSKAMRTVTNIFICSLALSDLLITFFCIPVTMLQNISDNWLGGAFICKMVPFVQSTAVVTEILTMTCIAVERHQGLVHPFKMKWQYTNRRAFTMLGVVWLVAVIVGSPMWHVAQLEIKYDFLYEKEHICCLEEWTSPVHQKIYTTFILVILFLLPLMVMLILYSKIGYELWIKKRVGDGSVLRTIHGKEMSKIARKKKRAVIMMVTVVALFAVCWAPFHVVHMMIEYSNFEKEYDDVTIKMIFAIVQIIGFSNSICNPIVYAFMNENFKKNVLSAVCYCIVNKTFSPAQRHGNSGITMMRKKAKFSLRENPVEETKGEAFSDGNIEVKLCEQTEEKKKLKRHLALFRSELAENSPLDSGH
Test: TGFα shedding assay; Exp. level WT (1:5)
Type: cell-based
Experimental: For the TGFα shedding assay and the flow cytometry analysis, we used human full-length QRFPR-encoding plasmids. Specifically, GPR103 was N-terminally modified with an HA signal sequence followed by a FLAG epitope and then a flexible linker ([…]; the FLAG epitope is underlined) and inserted into the pCAGGS vector. Plasmid encoding GPR103 mutants were generated using Quickchange Site-Directed Mutagensis kit (Agilent).
The TGFα shedding assay was performed as described previously with minor modifications. Plasmid transfection was performed in a 6-well plate with a mixture of 500 ng (per well in a 6-well plate) AP-TGFα-encoding plasmid and 200 ng GPR103-encoding plasmid. After 1-day culture, the transfected cells were harvested by trypsinization, pelleted by centrifugation at 190 × g for 5 min, and washed once with 5 mM HEPES (pH 7.4)-containing Hank’s Balanced Salt Solution (HBSS). After centrifugation, the cells were resuspended in 8 mL of the HEPES-containing HBSS. The cell suspension was seeded in a 96-well culture plate (cell plate) at a volume of 90 μL (per well hereafter) and incubated in a 37 °C incubator with 5% CO2 for 30 min. […] After spinning the cell plates at 190 × g for 2 min, 80 μL of conditioned media was transferred to an empty 96-well plate (conditioned media (CM) plate). Then, 80 μL of AP reaction solution (10 mM p-nitrophenylphosphate (p-NPP), 120 mM Tris-HCl (pH 9.5), 40 mM NaCl, and 10 mM MgCl2) was dispensed into the cell plates and the CM plates. Absorbance at 405 nm of the plates was measured using a microplate reader (SpectraMax 340 PC384, Molecular Devices) before and after 1-h incubation at room temperature. Ligand-induced AP-TGFα release was calculated by subtracting spontaneous AP-TGFα release signal from ligand-induced AP-TGFα release signal. The AP-TGFα release signals were fitted to a four-parameter sigmoidal concentration–response curve, using the Prism 10 software (GraphPad Prism). For each replicate experiment, the pEC50 parameter (negative logarithmic values of EC50 values) of the individual GPR103 mutants were normalized to that of the wild-type GPR103 performed in parallel, and resulting ∆pEC50 values were used to denote ligand response activity of the mutants. […]
Exp. le vel: WT (1:5 0)Exp. le vel: WT (1:5 0)Exp. le vel: WT (1:5 0)Exp. le vel: WT (1:2 0)Exp. le vel: WT (1:2 0)Exp. le vel: WT (1:1 0) […]
L1 4N - t e r mA F2 5N - t e r mA I 2 6N - t e r mA Y 2 9N - t e r mA C 9 82 .5 7A T10 22 .6 1A Exp . l eve l: WT (1 :5)Exp . l evel : >WT (1 :1)Exp. le vel: WT (1:2 0)Exp. le vel: WT (1:2 0)Exp. le vel: WT (1:5 0)Exp . l eve l: WT (1 :1) […]
Exp. le vel: WT (1:1 0)Exp. le vel: WT (1:2 0) C 1 1 83 .2 5AExp. le vel: WT (1:5 0)Exp. le vel: WT (1:5 0)Exp. le vel: WT (1:2 0)Exp . l eve l: WT (1 :5) […]
Exp. le vel: WT (1:5 0)Exp. le vel: WT (1:1 0)Exp. le vel: WT (1:5 0) E203ECL2AExp . l evel : >WT (1 :1)Exp. le vel: WT (1:5 0)Exp. le vel: WT (1:5 0) […]
Exp . l eve l: WT (1 :1) F28Exp. le vel: WT (1:5 0) C 2 8 56 .4 7AExp. le vel: WT (1:2 0) WExp. le vel: WT (1:2 0) F28Exp. le vel: WT (1:5 0)Exp . l evel : >WT (1 :1) […]
Exp. le vel: WT (1:5 0)Exp. le vel: WT (1:5 0) C 3 2 77 .4 8AExp . l eve l: WT (1 :5)Exp . l evel : >WT (1 :1)Exp . l evel : >WT (1 :1) […]
Suppl eme nt ary Figure 1 | Mutational analysis of GPR103. […]
mutants. Data are presented as mean values ± SEM, normally n=3-5; dots), each performed in triplicate. b-d Cell-surface expression (b) and QRFP26-in-duced activation of GPR103 (c, d) were analyzed by the flow cytometry and the TGFα shedding assay, respectively. From the concentration–response curves (a), Emax (c) and ΔpEC50 (d) values relative to the wild type were calculated. Colors in the mutant bars indicate an expression level matching to that of titrated wild type. Statistical analyses were performed using the ordinary one-way ANOVA followed by Dunnett tests with the expression-matched […]

Emax (mean): 99.8%
EC50 (n = 3): 0.234 µM
Emax (n = 3): 103 ± 2.2%
Substance: TSGPLGNLAEELNGYSRKKGGFSFRF-NH2 [QRFP26]
